Results: publication PMC8682738, “Constrained peptides mimic a viral suppressor of RNA silencing” (Nucleic Acids Research, 2021)
Positions of bridges follow the written chain, without caps; N, C: chain ends. Non-standard residues stand in square brackets, D forms with d. Residues, ends and D or L forms follow the SMILES beside them. *: point of attachment. FITC = O=C1OC2(c3ccc(O)cc3Oc3cc(O)ccc32)c2ccc(NC(=S)*)cc21; R8 = C=CCCCCCC[C@@](C)(N)C(=O)O; S5 = C=CCCC[C@](C)(N)C(=O)O; AEEA = NCCOCCOCC(=O)O

Key:
[1] = tested on: miR-21 duplex; test: Thermal denaturation of miR-21 duplex (CD melting); assay type: binding; settings: miR-21 2 μM, unlabeled peptide 4 μM
Procedure: For each sample, 10 CD spectra were measured between λ = 200 and 350 nm with continuous scan mode (1 mdeg sensitivity, 1.0 nm resolution, 1.0 nm bandwidth, 2 s integration time, 100 nm·min^−1 scan rate). Obtained spectra were averaged and then subtracted from a reference buffer spectrum. CD data were normalized to oligonucleotide strand concentration using Formula (1):(1) where θ = observed ellipticity (mdeg), c = DNA strand concentration (mol·l^−1) and l = path length (cm).
Melting temperature (Tm) determination was conducted using the same instrumentation and sample preparation, where ellipticity (θ = 267 nm) was measured by ramping the temperature from 15–90°C (4°C·min^−1 ramp, ±0.05°C equilibration tolerance, 6 s delay after equilibration). Data points were recorded every 0.5°C. Raw data was normalized as described above and Tm-values were determined using the CDpal program ([44]) before being plotted in Prism 5.0 (GraphPad).

[2] = tested on: ds pal-RNA; test: EMSA with ds pal-RNA; assay type: binding; settings: fluorescein-labeled peptide 6 μM, RNA 3 μM, 10% native PAGE, 4°C
Procedure: (§1) Electrophoretic mobility shift assays (EMSAs) were performed using a Bio-Rad Mini-Protean gel system paired with a direct current (DC) power source (PowerPac™ HC, Bio-Rad). Typically, 6 μl solutions containing ds RNA (c = 3 μM) and fluorescein-labeled peptide (c = 6 μM) were incubated in binding buffer (10 mM Tris (pH 8.0), 0.5 mM EDTA, 12.5% glycerol and 150 mM KCl) at 4°C for 1 h. After incubation, bound RNA was resolved from peptide-free RNA using 10% non-denaturing polyacrylamide gels at 120 V in running buffer (25 mM Tris (pH 8.0), 200 mM glycine, 20 mM NaCl) at 4°C for 1 h. Visualization of fluorescent gel-bound species was conducted using a Typhoon Trio + fluorescence scanner (GE Healthcare Life Sciences). For nucleic acid visualization, gels were stained using 2 μl of SYBR™ gold nucleic acid gel dye (Molecular Probes) in 20 ml of TAE buffer (40 mM Tris, 1 mM EDTA, 20 mM acetic acid) for 45 min at RT before being visualized using a FluorChem™ gel documentation system (Alpha Innotech). To assess B3 binding to different ds RNA sequences (Supplementary Figure S20), 6 μl solutions containing hairpin RNA (c = 1 μM) and fluorescein-labeled B3 (c = 2 μM) were incubated in binding buffer (TAE and 10% glycerol) at RT for 1 h, and then resolved using 15% non-denaturing polyacrylamide gels (acrylamide/bis-acrylamide (19:1) in TAE) at 150 V in running buffer (TAE) at 4°C for 1.5 h. Visualization of fluorescent gel-bound species was conducted using a Bio-Rad ChemiDoc (Bio-Rad). Subsequently, gels were stained with SYBR™ gold nucleic acid gel dye (Invitrogen) as described above and visualized using the same imaging system. To assess B3 binding to pre–miR-21 (Supplementary Figure S24), the RNA was prepared at a fixed concentration (c = 1 μM) and incubated with varying concentrations of fluorescein-labeled B3 (c = 0–5 μM) in binding buffer (TAE and 10% glycerol) at RT for 1 h. After incubation, bound nucleic acid complexes were resolved using 15% non-denaturing polyacrylamide gels (acrylamide/bis-acrylamide (19:1) in TAE) at 150 V in running buffer (TAE) at 4°C for 1.5 h, followed by visualization and staining with SYBR™ gold nucleic acid gel dye (Invitrogen).

[3] = tested on: K562 cells; test: Live cell confocal microscopy; assay type: cell-based, human; settings: fluorescein-labeled peptide 1 μM, 30 min, 37°C
Procedure: Non-adherent K562 cells were counted and collected in 1.5 ml Eppendorf tubes at 30 000 cells per tube. After a wash, cells were re-suspended in 200 μl of phenol-red free media containing 5% FCS and fluorescein-labeled peptides (c(peptide) = 1 μM, t = 30 min) in the Eppendorf tubes at 37°C with vertical rotation to avoid cell pelleting. After incubation, cells were washed once with phenol-red free media, re-suspended again in the same media, and transferred into the wells of an 8-chamber μ-slide (Ibidi). Cells were immediately imaged at 37°C with an SP5 Laser Scanning Confocal Microscope (Leica). Fluorescein was excited with an argon ion laser at wavelength of 488 nm and fluorescence was detected in the range 505–530 nm.

[4] = target: proteinase K (Parengyodontium album, UniProt P06873); test: Protease stability assay; assay type: in vitro ADME; settings: for Half-life (t1/2): proteinase K 10 μg·ml^−1, fluorescein-labeled peptide 50 μM, 10 mM Tris pH 8.0, 150 mM NaCl, room temperature, HPLC absorbance 210 nm, exponential decay fit
proteinase K, sequence (P06873 106-384): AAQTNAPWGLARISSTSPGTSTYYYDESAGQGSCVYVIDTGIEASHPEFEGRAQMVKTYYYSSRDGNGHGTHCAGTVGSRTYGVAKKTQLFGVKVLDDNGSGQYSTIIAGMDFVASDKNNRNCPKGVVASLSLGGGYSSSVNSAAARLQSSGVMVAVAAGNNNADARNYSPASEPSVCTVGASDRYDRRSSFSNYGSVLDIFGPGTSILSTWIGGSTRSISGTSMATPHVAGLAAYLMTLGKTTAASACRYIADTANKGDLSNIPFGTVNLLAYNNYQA
Procedure: Protease stability assays were performed in analogy to a previously published protocol ([47]). Stocks of fluorescein-labeled peptides were prepared to a concentration of 55.5 μM in assay buffer (10 mM Tris, pH 8.0, 150 mM NaCl) and separately stocks of proteinase K also in assay buffer (c = 100 μg·ml^−1). To begin each experiment, peptide and proteinase K stocks were mixed (final concentrations: c = 10 μg·ml^−1 proteinase K, c = 50 μM fluorescein-labeled peptide; final volume = 500 μl) and incubated at room temperature. At each time point, 50 μl of the reaction mixture was quenched by adding 100 μl of TFA/ACN/H2O (v/v/v, 1:49:49) and subsequently incubated for 2 min on ice. Following centrifugation (15 min, 13200 rpm, 4°C), samples (45 μl) were monitored by analytical HPLC using a linear gradient of 10–60% HPLC solvent B over 20 min. The amount of remaining peptide was quantified via absorbance at λ = 210 nm (intact peptide (%)) and plotted against time (t) (h). Half-life (t1/2) was calculated by fitting the data to an exponential decay using the software Prism 5.0 (GraphPad).

[5] = tested on: ds miR-21; test: EMSA with ds miR-21; assay type: binding; settings: peptide 6 μM, ds miR-21 3 μM
Procedure: as §1, with “After incubation, bound nucleic acid complexes were resolved using 15% non-denaturing polyacrylamide gels (acrylamide/bis-acrylamide (19:1) in TAE) at 150 V in running buffer (TAE) at 4°C for 1.5 h, followed by visualization and staining with SYBR™ gold nucleic acid gel dye (Invitrogen).” left out

CC(C)C[C@H](NC(=O)[C@]1(C)CCCC=CCCC[C@](C)(NC(=O)[C@H](CCC(=O)O)NC(=O)[C@H](CO)NC(=O)[C@@H]2CCCN2C(=O)[C@H](CO)NC(=O)[C@H](CCCCN)NC(=O)[C@H](Cc2c[nH]cn2)NC(=O)CNC(=O)[C@H](CCCNC(=N)N)NC(=O)[C@]2(C)CCCC=CCCC[C@](C)(NC(=O)[C@H](CCCCN)NC(=O)[C@H](Cc3c[nH]cn3)NC(=O)[C@H](CCCNC(=N)N)NC(=O)[C@H](CCCCN)NC(=O)[C@H](CCCNC(=N)N)NC(=O)[C@H](CCC(N)=O)NC(=O)[C@H](C)NC(=O)[C@H](CCC(N)=O)NC(=O)[C@H](CCCCN)NC(=O)[C@H](CCCCN)NC(=O)COCCOCCNC(=S)Nc3ccc4c(c3)C(=O)OC43c4ccc(O)cc4Oc4cc(O)ccc43)C(=O)N[C@@H](CC(N)=O)C(=O)N[C@@H](CCCNC(=N)N)C(=O)N[C@@H](CCCCN)C(=O)N2)C(=O)N[C@@H](CCCNC(=N)N)C(=O)N[C@@H](CCCNC(=N)N)C(=O)N[C@@H](CO)C(=O)N1)C(=O)N[C@@H](Cc1c[nH]c2ccccc12)C(=O)N[C@@H](Cc1c[nH]cn1)C(=O)N[C@@H](C)C(=O)N[C@@H](CCCNC(=N)N)C(N)=O [B3] ({FITC-AEEA}-KKQAQRKRHK[S5]NRK[S5]RGHKSPSE[S5]RRS[S5]LWHAR-NH2; staple 11-15, 24-28)
ΔTm of miR-21 duplex [1]: > 10 °C
binding to ds pal-RNA in EMSA [2]: full disappearance of the ds pal-RNA band
cell permeability by live cell confocal microscopy [3]: confirming their cell permeability
Half-life (t1/2) [4]: 6.18 h
binding to ds miR-21 in EMSA [5]: formation of peptide/RNA complexes

CC(C)C[C@@H]1NC(=O)[C@@](C)(NC(=O)[C@H](CO)NC(=O)[C@H](CCCNC(=N)N)NC(=O)[C@H](CCCNC(=N)N)NC(=O)[C@H](CCC(N)=O)NC(=O)[C@H](CCC(=O)O)NC(=O)[C@H](CO)NC(=O)[C@@H]2CCCN2C(=O)[C@H](CO)NC(=O)[C@H](CCCCN)NC(=O)[C@H](Cc2c[nH]cn2)NC(=O)CNC(=O)[C@H](CCCNC(=N)N)NC(=O)[C@H](CCC(=O)O)NC(=O)[C@H](CCCCN)NC(=O)[C@H](CCCNC(=N)N)NC(=O)[C@H](CC(N)=O)NC(=O)[C@]2(C)CCCC=CCCCCCC[C@@](C)(NC(=O)[C@H](CCC(N)=O)NC(=O)[C@H](CCCCN)NC(=O)[C@H](CCCCN)NC(=O)COCCOCCNC(=S)Nc3ccc4c(c3)C(=O)OC43c4ccc(O)cc4Oc4cc(O)ccc43)C(=O)N[C@@H](CCC(N)=O)C(=O)N[C@@H](CCCNC(=N)N)C(=O)N[C@@H](CCCCN)C(=O)N[C@@H](CCCNC(=N)N)C(=O)N[C@@H](Cc3c[nH]cn3)C(=O)N[C@@H](CCCCN)C(=O)N2)CCCC=CCCC[C@@](C)(C(=O)N[C@@H](CCCNC(=N)N)C(N)=O)NC(=O)[C@H](Cc2c[nH]cn2)NC(=O)[C@H](Cc2c[nH]c3ccccc23)NC1=O [C1] ({FITC-AEEA}-KKQ[R8]QRKRHK[S5]NRKERGHKSPSEQRRS[S5]LWH[S5]R-NH2; staple 4-11, 28-32)
ΔTm of miR-21 duplex [1]: > 10 °C
binding to ds pal-RNA in EMSA [2]: full disappearance of the ds pal-RNA band
cell permeability by live cell confocal microscopy [3]: confirming their cell permeability
Half-life (t1/2) [4]: 10.6 h
fold increased stability compared to wt33 ([4]; proteinase K, fluorescein-labeled peptides): 265 fold
binding to ds miR-21 in EMSA [5]: formation of peptide/RNA complexes

CC(C)C[C@@H]1NC(=O)[C@H](CCC(=O)O)NC(=O)[C@H](CO)NC(=O)[C@@](C)(NC(=O)[C@H](CCCNC(=N)N)NC(=O)[C@H](CCC(N)=O)NC(=O)[C@H](CCC(=O)O)NC(=O)[C@H](CO)NC(=O)[C@@H]2CCCN2C(=O)[C@H](CO)NC(=O)[C@H](CCCCN)NC(=O)[C@H](Cc2c[nH]cn2)NC(=O)[C@]2(C)CCCC=CCCCCCC[C@@](C)(NC(=O)[C@H](Cc3c[nH]cn3)NC(=O)[C@H](CCCNC(=N)N)NC(=O)[C@H](CCCCN)NC(=O)[C@H](CCCNC(=N)N)NC(=O)[C@H](CCC(N)=O)NC(=O)[C@H](C)NC(=O)[C@H](CCC(N)=O)NC(=O)[C@H](CCCCN)NC(=O)[C@H](CCCCN)NC(=O)COCCOCCNC(=S)Nc3ccc4c(c3)C(=O)OC43c4ccc(O)cc4Oc4cc(O)ccc43)C(=O)N[C@@H](CC(C)C)C(=O)N[C@@H](CC(N)=O)C(=O)N[C@@H](CCCNC(=N)N)C(=O)N[C@@H](CCCCN)C(=O)N[C@@H](CCC(=O)O)C(=O)N[C@@H](CCCNC(=N)N)C(=O)N2)CCCC=CCCC[C@@](C)(C(=O)N[C@@H](Cc2c[nH]cn2)C(=O)N[C@@H](C)C(=O)N[C@@H](CCCNC(=N)N)C(N)=O)NC1=O [D1] ({FITC-AEEA}-KKQAQRKRH[R8]LNRKER[S5]HKSPSEQR[S5]SEL[S5]HAR-NH2; staple 10-17, 26-30)
ΔTm of miR-21 duplex [1]: only showed a mild effect on duplex stability
binding to ds pal-RNA in EMSA [2]: does not bind to ds pal-RNA
cell permeability by live cell confocal microscopy [3]: confirming their cell permeability
Half-life (t1/2) [4]: 4.65 h
binding to ds miR-21 in EMSA [5]: did not show binding
